From patent EP2518139A1, “Use of indirubin derivatives for producing pluripotent stem cells” (Universitätsklinikum Jena, priority 2011, dated 2012)
“Also recorded” adds a separate entry of the source.

System: MAPKs (JNK, P38, Erk1/2)
Experiment: Immunoblot of phosphorylated MAPKs in HeLa cells
Assay type: cell-based, human
Conditions: BMP2 (100ng/mL)
Protocol: Western blot:: Cell extracts were homogenized in Urea-Lysis buffer (1mM EDTA,0.5% Triton X-100), 5mM NaF, 6M Urea, 1mM Na3VO4, 10µg/mL Pepstatin, 100µM PMSF and 3µg/mL Aprotinin in PBS). Enhanced chemiluminescence (ECL) Western blot analysis was performed. 20-40µg of total protein was resolved on 10% SDS-PAGE gels and immunoblotted with specific antibodies. Primary antibodies were incubated at a 1:1,000 dilution in TBS (pH 7.5) with 0.1% Tween-20 and 5% BSA/nonfat milk with gentle agitation overnight at 4°C. The proper secondary antibodies were incubated in TBS (pH 7.5) with 5% BSA/nonfat milk and 0.1 % Tween-20 at a 1:5,000 dilution for 1 h at room temperature.
To assess the effect of E738 on Wnt and Stat3 pathway in mammalian cellular context, HeLa cells were treated with E738 at increasing concentrations for 1 h. Here E804 was used as reference because of its well-known inhibition of Stat3 and Wnt. The antibodies of p-Stat3 and non-phosphorylation-ß-Catenin (NP-ß-Catenin, Ser33/37/Thr41), which can provide a convenient positive band if GSK3B is inhibited, were recruited to substantiated our in vitro results. […] With the stimulation of FCS, we also observed the similar regulation on Stat3 and MAPKs pathways depicted in Fig. 8. […]

## COc1ccc2c(c1)C(=C1Nc3ccccc3C1=NOCC(O)CO)C(=O)N2 (centres unmarked) [E738]
1 h, increasing concentrations
  phosphorylations of MAPKs (JNK, P38, Erk1/2): promoted phosphorylations of JNK and P38 at the low concentraions, but not for Erk1/2
6h after treatment
  p-JNK, p-P38 and pErk1/2: induced activation of P38; also recorded: clear increases of p-JNK and p-P38 were observed 6h after treatment, but not pErk1/2
